Measured values taken from patent US20090042883A1, “ANTITUMOR AGENT” (KYOWA HAKKOKOGYO CO., priority 2005, published 2009).

How the values were obtained:
Type in all cases: cell-based
[1] = tested on: human acute myelocytic leukemia MV4; 11 cells; assay: Growth inhibition test on human acute myelocytic leukemia MV4; 11 cells (WST-1, % viability); conditions: test compound 10 μmol/L, cells without test compound = 100%
Method: (§1) Ten thousand cells of human acute myelocytic leukemia MV4; 11 were inoculated into each well of a 96-well microplate (manufactured by Nunc Corp.), and using IMDM medium (culture medium) containing 10% FCS, preculturing was performed in a 5% carbon dioxide incubator at 37° C. for 24 hours. A DMSO solution of each test compound prepared in a concentration of 10 mmol/L was diluted with the culture medium to a final concentration of 10 μmol/L, and the diluted solution was added to each well. The individual wells were further cultured in the 5% carbon dioxide incubator at 37° C. for 72 hours. After completion of the culturing, 10 μL of WST-1 labeled mixture (manufactured by Roche Diagnostic Corp.) was added to each well, and culturing was performed in the 5% carbon dioxide incubator at 37° C. for 1 hour. Using a microplate spectrophotometer (SpectraMax 340PC384; manufactured by Nihon Molecular Devices), the absorbance of each well was measured at 450 nm and 655 nm. The value obtained by subtracting the absorbance at 450 nm from the absorbance at 655 nm (absorbance difference) was calculated for each well. The value for cells not incorporated with a test compound was designated as 100%, and the value at a well not containing cells was designated as 0%. By comparing these values with the absorbance difference obtained at the well in which each test compound was added, the cell viability (% viability) after treatment with the test compound was calculated.

[2] = tested on: human T-cell lymphoma Karpas-299 cells; assay: Growth inhibition test on human T-cell lymphoma Karpas-299 cells (WST-1, % viability); conditions: test compound 10 μmol/L, 72 hours, cells without test compound = 100%
Method: as §1, with “Five” for “Ten”, “T-cell lymphoma Karpas-299” for “acute myelocytic leukemia MV4; 11”, “RPMI” for “IMDM”, “5” for “24”, “2 hours.” for “1 hour.”

[3] = tested on: human chronic lymphocytic leukemia-derived MEC-1 cells; assay: Growth inhibition test on human chronic lymphocytic leukemia-derived MEC-1 cells (WST-1, % viability); conditions: test compound 10 μmol/L, 72 hours, cells without test compound = 100%
Method: (§2) Ten thousand cells of human chronic lymphocytic leukemia-derived MEC-1 were inoculated into each well of a 96-well microplate (manufactured by Nunc Corp.), and using RPMI1640 medium (culture medium) containing 10% FCS, preculturing was performed in a 5% carbon dioxide incubator at 37° C. for 1 hour. A DMSO solution of each test compound prepared in a concentration of 10 mmol/L was diluted with the culture medium to a final concentration of 10 μmol/L, and the diluted solution was added to each well. The individual wells were further cultured in the 5% carbon dioxide incubator at 37° C. for 72 hours. After completion of the culturing, 10 μL of WST-1 labeled mixture (manufactured by Roche Diagnostic Corp.) was added to each well, and culturing was performed in the 5% carbon dioxide incubator at 37° C. for 3 hours. Using a microplate spectrophotometer (M-SPmax 250; manufactured by Molecular Devices Corp.), the absorbance of each well was measured at 450 nm and 655 nm. The value obtained by subtracting the absorbance at 450 nm from the absorbance at 655 nm (absorbance difference) was calculated for each well. The value for cells not incorporated with a test compound was designated as 100%, and the value at a well not containing cells was designated as 0%. By comparing these values with the absorbance difference obtained at the well in which each test compound was added, the cell viability (% viability) after treatment with the test compound was calculated.

[4] = tested on: human lung cancer NCI-H596 cells; assay: Growth inhibition test on human lung cancer NCI-H596 cells (WST-1, % viability); conditions: test compound 10 μmol/L, cells without test compound = 100%
Method: as §2, with “Four thousand” for “Ten thousand”, “human lung cancer NCI-H596” for “human chronic lymphocytic leukemia-derived MEC-1”, “for 24 hours.” for “for 1 hour.”, “for 2” for “for 3”, “spectrophotometer (Model 550;” for “spectrophotometer (M-SPmax 250;”, “by Bio-Rad),” for “by Molecular Devices Corp.),”

[5] = tested on: human renal cancer OS-RC-2 cells; assay: Growth inhibition test on human renal cancer OS-RC-2 cells (WST-1, % viability); conditions: test compound 10 μmol/L, 72 hours, cells without test compound = 100%
Method: as §2, with “One thousand” for “Ten thousand”, “human renal cancer OS-RC-2” for “human chronic lymphocytic leukemia-derived MEC-1”, “for 24 hours.” for “for 1 hour.”, “for 2” for “for 3”, “spectrophotometer (Model 550;” for “spectrophotometer (M-SPmax 250;”, “by Bio-Rad),” for “by Molecular Devices Corp.),”

| Compound | Viability of tumor cells (% viability), Human acute myelocytic leukemia MV4; 11 cells [1] [%] | Viability of tumor cells (% viability), Human T-cell lymphoma Karpas-299 cells [2] [%] | Viability of tumor cells (% viability), Human chronic lymphocytic leukemia MEC-1 cells [3] [%] | Viability of tumor cells (% viability), Human lung cancer NCI-H596 cells [4] [%] | Viability of tumor cells (% viability), Human renal cancer OS-RC-2 cells [5] [%] |
| --- | --- | --- | --- | --- | --- |
| CCc1c(O)cc(O)c(C(=O)c2ccc(OCCN3CCOCC3)c(OC)c2)c1CC(=O)N(CCOC)CCOC [Compound 125] | 0 | 15 | 5 | 17 | 20 |
| CCc1c(O)cc(O)c(C(=O)c2ccc(OC(C)C)cc2)c1CC(=O)N(CCO)CCOC [Compound 124] | 0 | 14 | 4 | 15 | 15 |
| CCc1c(O)cc(O)c(C(=O)c2ccc(S(C)(=O)=O)cc2)c1CC(=O)N(CCOC)CCOC [Compound 107] | 0 | 14 | 5 | 16 | 18 |
| CCc1c(O)cc(O)c(C(=O)c2ccc(OCCCN3CCOCC3)c(OC)c2)c1CC(=O)N(CCOC)CCOC [Compound 149] | 0 | 14 | 5 | 14 | 20 |
| CCc1c(O)cc(O)c(C(=O)c2ccc(OC)c(OC)c2)c1CC(=O)N(CCO)CCOC [Compound 56] | 0 | 14 | 4 | 20 | 18 |
| CCc1c(O)cc(O)c(C(=O)c2ccc(OC(C)C)cc2)c1CC(=O)N(CCOC)CCN1CCOCC1 [Compound 134] | 0 | 16 | 6 | 17 | 21 |
| CCc1c(O)cc(O)c(C(=O)c2ccc(C(F)(F)F)cc2)c1CC(=O)N(CCO)CCOC [Compound 144] | 0 | 15 | 4 | 14 | 16 |
| CCc1c(O)cc(O)c(C(=O)c2ccsc2)c1CC(=O)N(CCO)CCOC [Compound 151] | 0 | 13 | 4 | 28 | 30 |
| CCOc1ccc(C(=O)c2c(O)cc(O)c(CC)c2CC(=O)N(CCO)CCOC)cc1 [Compound 122] | 0 | 12 | 4 | 15 | 15 |
| CCc1c(O)cc(O)c(C(=O)c2ccc(OC)cc2)c1CC(=O)N1CCC(CO)CC1 [Compound 61] | 0 | 13 | 5 | 25 | 25 |
| CCc1c(O)cc(O)c(C(=O)c2ccc(OC)cc2)c1CC(=O)N1CCN(c2ncccn2)CC1 [Compound 32] | 0 | 15 | 4 | 15 | 17 |
| CCc1c(O)cc(O)c(C(=O)c2ccc(O)c(OC)c2)c1CC(=O)N(CCOC)CCOC [Compound 106] | 0 | 13 | 4 | 12 | 16 |
| CCc1c(O)cc(O)c(C(=O)c2ccc(OC)cc2)c1CC(=O)N(CCO)CCOC [Compound 33] | 0 | 14 | 4 | 20 | 18 |
